Consider one compound from patent publication EP0405506A1, “Tetrapeptide type-B CCK receptor ligands” (ABBOTT LABORATORIES, priority 1989, dated 1991).

The subject of the assay is VTA neurons. The assay can be described thus: Potentiation of ethanol-induced excitation of VTA neurons in rat brain slices (extracellular recording). It is filed as cell-based, Sprague-Dawley rats. To be noted: ethanol 80 to 160 mM, agonist infused at least 10 minutes before ethanol. The procedure: Brain slices form Sprague-Dawley rats (100-200 gm) containing the ventral tegmental area were prepared as previously described (Brodie and Dunwiddie, Brain Research, 425, 106 (1987)). Animals used in this study were treated in strict accordance with the NIH Guide for the Care and use of Laboratory Animals. Coronal sections (400 um thick) were cut and the tissue was place directly in the recording chamber. Small platinum weights were placed on the slice to increase the stability of recordings. The slice was covered with medium and a superfusion system then maintained the flow of medium at 2 ml/min; the temperature in the recording chamber was kept at 35°C. […] The flow rate was continuously monitored with a flowmeter and adjustable valves were used to keep the rate constant. […]
Ethanol and the CCK agonist compound were added to the aCSF in the fluid delivery tubing by means of a calibrated infusion pump from stock solutions 100 to 1000 times the desired final concentrations. Final concentrations were calculated from aCSF flow rate, pump infusion rate and concentration of drug stock solution. […]
Frequency of firing was determined using a window discriminator and ratemeter, the output of which was fed to a chart recorder. […]

In the case of `CCC[C@H]1CCN(C(=O)[C@@H]2Cc3c[nH]c4cccc(c34)CC(=O)N2)[C@@H]1C(=O)N[C@@H](CC(=O)O)C(=O)N[C@@H](Cc1ccccc1)C(N)=O` [Example 48, Ctp-Tpp-Asp-Phe-NH₂], the “effect on excitatory effect of ethanol on VTA neurons (firing rate)” value is “increases the excitatory effect of ethanol on VTA neurons”.
